# Laboratory results taken from US11358969B2, “Indole AHR inhibitors and uses thereof” (Ikena Oncology, Inc., priority 2017, dated 2022).
# Where two headings read alike, the source gives them in different places.
# Tests used:
# AHR [1] = biological target: T1, AHR (UniProt P35869); experiment: DRE-Luciferase Reporter Assay (Alternate Method) (Example 1B); type: cell-based, murine or human; conditions: cell line and AHR activating ligand not specified
# T1 construct: IC50
# T1 sequence (P35869 1-848): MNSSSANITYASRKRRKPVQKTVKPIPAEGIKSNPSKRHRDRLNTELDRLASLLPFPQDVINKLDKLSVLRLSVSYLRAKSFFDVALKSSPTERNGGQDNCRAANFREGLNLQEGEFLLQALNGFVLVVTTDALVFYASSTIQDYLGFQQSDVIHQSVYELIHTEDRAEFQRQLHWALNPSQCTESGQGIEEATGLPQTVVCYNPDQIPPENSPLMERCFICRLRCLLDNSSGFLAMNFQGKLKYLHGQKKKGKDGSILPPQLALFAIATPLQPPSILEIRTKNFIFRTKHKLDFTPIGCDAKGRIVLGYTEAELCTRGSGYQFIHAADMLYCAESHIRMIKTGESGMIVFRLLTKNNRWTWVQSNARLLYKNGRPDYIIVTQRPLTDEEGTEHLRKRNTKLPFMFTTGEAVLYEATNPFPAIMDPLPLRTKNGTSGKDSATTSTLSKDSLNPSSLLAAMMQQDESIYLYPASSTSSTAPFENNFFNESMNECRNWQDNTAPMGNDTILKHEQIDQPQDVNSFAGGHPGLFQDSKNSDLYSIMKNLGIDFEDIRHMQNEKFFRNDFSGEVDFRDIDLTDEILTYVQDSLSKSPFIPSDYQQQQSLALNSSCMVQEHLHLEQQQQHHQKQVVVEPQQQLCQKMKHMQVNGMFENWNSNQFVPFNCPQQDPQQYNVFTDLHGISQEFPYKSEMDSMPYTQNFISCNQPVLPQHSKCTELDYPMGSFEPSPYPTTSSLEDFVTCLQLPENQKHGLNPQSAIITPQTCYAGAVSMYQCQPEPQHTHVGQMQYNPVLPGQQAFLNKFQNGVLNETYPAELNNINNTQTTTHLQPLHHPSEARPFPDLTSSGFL
# AHR [2] = biological target: T1, AHR; experiment: DRE-Luciferase Reporter Assay (Example 1A); type: cell-based, murine or human; conditions: cell line and AHR activating ligand not specified
# Procedure: AHR binds to Dioxin Responsive Elements (DRE) upstream of genes that it activates. One measure of AHR activity is activation of a reporter gene, such as luciferase, downstream of one or multiple DRE elements. Luciferase activity will reflect activation and inhibition of AHR in the cells expressing his reporter.
# Murine Hepa1-6 or Hepa-1c1c7 or other murine cell line with a DRE-luciferase reporter either stably or transiently transfected were plated in media in plates (96-well, 384-well or other plates) and incubated overnight at 37° C. in a CO2 incubator. Likewise, human HepG2 or other human cell line with a DRE-luciferase reporter either stably or transiently transfected were plated in media in plates (96-well, 384-well or other plates) and incubated overnight at 37° C. in a CO2 incubator.
# The next day, an AHR activating ligand, such as TCDD, kynurenine, ITE (2-(1H-indole-3-ylcarbonyl)-4-thiazolecarboxylic methyl ester), VAF347, BNF (beta-naphthoflavone), FICZ (6-formylindolo(3,2-b) carbazole or other AHR ligands, was added with or without AHR antagonist.
# Cells were incubated for 4, 15 or 24 hours or another time point and then lysed for determination of luciferase activity as a read-out of the AHR activation or inhibition. Luciferase was measured with a commercial kit such as the Promega Luciferase kit or any kit or reagents that provide the luciferin substrate for measuring luciferase activity. The level of luciferase with only activating ligand added was the maximum signal while the luciferase with no ligand was the minimum signal. IC50 values were determined as the concentration which inhibits half of the luciferase activity.
# [3] = In Vitro Mouse liver S9 Metabolic Stability Assay (Example 1D); type: in vitro ADME; conditions: CD-1 mouse liver S9, 1 μM compound, 1 mg/mL S9 protein, 37° C., NADPH regenerating system, UDPGA, PAPS
# In short: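 Compound at 1 μM final (0.1% DMSO) incubated at 37° C with pooled CD-1 mouse liver S9 (1 mg/mL protein) plus NADPH-regenerating system, UDPGA and PAPS. Samples at 0 and 60 min quenched in cold acetonitrile with internal standard; LC-MS/MS analyte/IS peak-area ratios give % remaining at 60 min.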
# [4] = Mouse Pharmacokinetic Study (Example 1C); type: in vivo; conditions: mouse, plasma, CD-1 mice
# In short: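 CD-1 mice dosed intravenously or by oral gavage; plasma sampled at 0.167, 0.5, 1, 2, 4, 6, 12 and 24 h post-dose. Samples analyzed by LC/MS/MS (MRM, positive mode) against a plasma standard curve of 1.0–3000 ng/mL; PK parameters from non-compartmental analysis.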
# Cyp1a1 = experiment: In Vivo Mouse liver and spleen Cyp1a1 Modulation Assay (Example 1E); parameters: species or system C57BL/6 mice; conditions: po, 4 h, dose 30 mg/kg, with AHR agonist VAG539 30 mg/kg po, qPCR
# Procedure: C57BL/6 mice, female, 6-8 weeks old, weighing approximately 18-20 g were purchased from Shanghai Lingchang Biological Technology Co., Ltd or other certified vendors and used in the studies. Animal husbandry, feeding and health conditions are according to animal welfare guidelines. VAG539 (30 mg/kg, po) was used as AHRagonist, and test compounds were formulated in suitable vehicles, typically 0.5% methylcellulose).
# C57BL/6 mice (n=3 per group) were treated with AHR agonist alone or with AHR agonist and test compounds. Animals were sacrificed at 4 or 10 hours after treatment upon which their livers and spleens were collected and subsequently analyzed by qPCR. Normalized fold induction of cyp1a1 was determined by comparing mCYP1A1 and mGAPDH counts (ct) according to: normalized fold=2^−ΔΔCt. The percent inhibition was calculated according to: […]
SMILES,IC50 (AHR [1]),IC50 (AHR [2]),Mouse S9 Stability: % Remaining After 60 Minutes [3],also measured
CC(C)n1cnc2c(NCCc3c[nH]c4ccccc34)nc(-c3cncc(F)c3)nc21 [I-6],< 500 nM,< 500 nM,0%,–
"CC(C)c1ccc2c(NCCc3c[nH]c4ccccc34)nc(-c3cncc(F)c3)nn12 [I-19, N-(2-(1H-Indol-3-yl)ethyl)-2-(5-fluoropyridin-3-yl)-7-isopropylpyrrolo[2,1-f][1,2,4]triazin-4-amine]",< 500 nM,500 to 1000 nM,–,–
"CC(C)n1cnc2c(NCCc3c[nH]c4cnccc34)nc(-c3cncc(F)c3)nc21 [I-9, 2-(5-Fluoro-3-pyridyl)-9-isopropyl-N-[2-(1H-pyrrolo[2,3-c]pyridin-3-yl)ethyl]purin-6-amine]",500 to 1000 nM,1000 to 1500 nM,–,–
"CC(C)c1csc2c(NCCc3c[nH]c4ccccc34)nc(-c3cncc(F)c3)nc12 [I-3, N-(2-(1H-indol-3-yl)ethyl)-2-(5-fluoropyridin-3-yl)-7-isopropylthieno[3,2-d]pyrimidin-4-amine]",< 500 nM,1000 to 1500 nM,–,–
"Fc1cncc(-c2nc(NCCc3c[nH]c4ccccc34)c3ccsc3n2)c1 [I-5, N-(2-(1H-indol-3-yl)ethyl)-2-(5-fluoropyridin-3-yl)thieno[2,3-d]pyrimidin-4-amine]",< 500 nM,> 1500 nM,–,–
"Fc1cncc(-c2cc(NCCc3c[nH]c4ccccc34)n3ncc(Br)c3n2)c1 [I-39, 3-Bromo-5-(5-fluoro-3-pyridyl)-N-[2-(1H-indol-3-yl)ethyl]pyrazolo[1,5-a]pyrimidin-7-amine]",< 500 nM,–,30%,"bioavailability ([4]; po, 30 mg/kg): 17%; AUC(0-inf) ([4]; iv, 3 mg/kg): 931 ng·h/mL; AUC(0-t) ([4]; iv, 3 mg/kg): 908 ng·h/mL; clearance ([4]; iv, 3 mg/kg): 53.7 mL/min/kg; half-life ([4]; iv, 3 mg/kg): 1.31 h; Vd ([4]; iv, 3 mg/kg, read-out: Vdss): 3.5 L/kg; AUC(0-inf) ([4]; po, 30 mg/kg): 1610 ng·h/mL; AUC(0-t) ([4]; po, 30 mg/kg): 1600 ng·h/mL; Cmax ([4]; po, 30 mg/kg): 799 ng/mL; half-life ([4]; po, 30 mg/kg): 3.35 h; inhibition at 30 mg/kg (Cyp1a1; read-out: Cyp1a1 inhibition, Liver, 4 h): 90%; inhibition at 30 mg/kg (Cyp1a1; read-out: Cyp1a1 inhibition, Spleen, 4 h): 69%"
"CC(C)n1ccc2c(NCCc3c[nH]c4ccccc34)nc(-c3cncc(F)c3)nc21 [I-4, 2-(5-Fluoro-3-pyridyl)-N-[2-(1H-indol-3-yl)ethyl]-7-isopropyl-pyrrolo[2,3-d]pyrimidin-4-amine]",< 500 nM,< 500 nM,0%,–
"CC(C)c1n[nH]c2c(NCCc3c[nH]c4ccccc34)nc(-c3cncc(F)c3)nc12 [I-1, 5-(5-Fluoro-3-pyridyl)-N-[2-(1H-indol-3-yl)ethyl]-3-isopropyl-1H-pyrazolo[4,3-d]pyrimidin-7-amine]",< 500 nM,1000 to 1500 nM,–,–
"CC(C)n1cnc2c(NCCc3c[nH]c4cccnc34)nc(-c3cncc(F)c3)nc21 [I-7, 2-(5-Fluoro-3-pyridyl)-9-isopropyl-N-[2-(1H-pyrrolo[3,2-b]pyridin-3-yl)ethyl]purin-6-amine]",> 1500 nM,< 500 nM,–,–
